In patent US8455225B2, “Yeast with increased butanol tolerance involving high osmolarity/glycerol response pathway” (Butamax Advanced Biofuels LLC, priority 2008, dated 2013):

Columns and labels:
[1] = test system: PBS2p over-producing strain; experiment: Growth yield in the presence of isobutanol, PBS2 ORF overexpressed from GAL1 promoter; assay type: cell-based, Saccharomyces cerevisiae; details: 1% isobutanol, PBS2p over-producing strain vs BY4741
Description: The effect of overexpression of the PBS2 coding region was assessed as follows. A Yeast ORF collection (Gelperin, White et al. (2005) Genes Dev. 19(23):2816-2826)_is available from Open Biosystems (Huntsville, Ala.). In this collection yeast ORFs are expressed from the GAL1 promoter in the vector BG1805. This vector can be introduced into ura3 yeast mutants and transformants selected for uracil prototrophy. In the presence of galactose and the absence of glucose, expression from the GAL1 promoter is elevated about 1000 fold relative to the barely detectable level observed with glucose grown cells (Johnston and Davis (1984) Mol. Cell. Biol. 4(8):1440-1448). Note that each ORF encodes a fusion protein of the form:
A plasmid containing the PBS2 ORF was obtained from this collection (YSC3867-9523439) and transformed into yeast strain BY4741 selecting for uracil prototrophy. […] Growth yield was measured by the following method. […] Absorbance was recorded.
Cultures were grown for 2-3 hours to allow one doubling. Absorbance was recorded at this time and was called T=0. […] OD600 was measured after incubation on a roller drum for 2 days. […] Percent growth was calculated as 100×[average A600 of the triplicate isobutanol challenged cultures/average A600 of the triplicate control cultures.

PBS2 deletion strains = details: homozygous deletion set screens (Fuijta et al. 2006; van Voorst et al. 2006) and other literature; cited from earlier work
haploid cells = details: Lorenz et al. 2000; cited from earlier work
[2] = test system: translation at the initiation step; details: Ashe et al. 2001; cited from earlier work

Molecule | hypersensitivity of PBS2 deletion strains (PBS2 deletion strains) | other results
CC(C)CO [isobutanol] |  | improvement in growth yield over the parental strain [1]: 41%
CCCO [propanol] | not found to be hypersensitive | 
CCCCCO [pentanol] | not found to be hypersensitive | 
COC(=O)Nc1nc2ccc(C(=O)c3cccs3)cc2[nH]1 [nocodazole] | hypersensitive | 
CCCCO [1-butanol] |  | effect on growth morphology (haploid cells): stimulates filamentous growth in haploid cells
[Cl-].[Na+] [NaCl] | hypersensitive | 
O=[As][O-].[Na+] [sodium metaarsenite] | hypersensitive | 
tunicamycin | hypersensitive | 
OC[C@@H](O)[C@@H](O)[C@H](O)[C@@H](O)CO [sorbitol] | hypersensitive | 
OCCS [2-mercaptoethanol] | hypersensitive | 
O[C@H](CS)[C@H](O)CS (racemic) [dithiothreitol] | hypersensitive | 
CCO [ethanol] | not found to be hypersensitive | 
[Ca+2].[Cl-].[Cl-] [CaCl2] | hypersensitive | 
butanol |  | effect on translation [2]: rapid inhibition of translation at the initiation step
